Paper PMC6429200, “Synthesis and Broad Antiviral Activity of Novel 2-aryl-isoindolin-1-ones towards Diverse Enterovirus A71 Clinical Isolates” (Molecules, 2019)
Read-outs that look alike come from different tables or passages of the source.

Experiments:
[1] = Cytotoxicity assay (CPE) on Vero cells; type: cell-based; conditions: African green monkey
Description: (§1) An in-vitro antiviral assay was established using the Africa monkey kidney cell line Vero which was infected with different EV-A71 clinical isolates (BrCr, H, Shenzhen98 and Jiangsu52). A total of 24 synthetic compounds were initially screened in such an assay to determine their inhibitory effect on virus replication at 3-fold diluted concentrations serial (400~0.18 μM). The 50% effective concentration (EC50) of each compound was calculated according to its inhibitory rate values with the Reed–Muench method. The 50% cytotoxic concentration (CC50) was defined as the concentration that inhibited 50% cellular growth in comparison with the controls. The selectivity index (SI) was calculated as CC50/EC50. […] Generally, the EV-A71 H strain was less sensitive to most of the active compounds as compared to the other virus strains.
African green monkey kidney (Vero) cells were purchased from the American Type Culture Collection (ATCC) and were cultured in minimum essential medium (MEM) supplemented with 10% fetal bovine serum (FBS) (GIBCO) and antibiotics (100 U/mL penicillin and […] streptomycin) at 37 °C in a 5% CO2 incubator.
The cytotoxic effects of compounds on Vero cells were detected by the cytopathic effect (CPE) assay. Briefly, cells (3 × 10^4 cells/well) were seeded into 96-well culture plates and incubated overnight. Then, the medium was removed and different concentrations of compounds were applied in triplicate. After 3 days of incubation, the CC50 was defined as the concentration that inhibited 50% cellular growth in comparison with the untreated controls, as calculated by the Reed–Muench method.

[2] = test system: four EV-A71 strains (BrCr, H, Shenzhen98, Jiangsu52); test: CPE inhibition assay, summary over four EV-A71 strains; type: cell-based, Enterovirus 71 (EV-A71); conditions: for EC50: Enterovirus A, EVA71, Vero, read-out: EC50 towards four EV-A71 strains
Description: as §1
(§2) The anti-EV-A71 activity of compounds was determined by the CPE inhibition method. Briefly, cells (3 × 10^4 cells/well) were plated into 96-well culture plates for incubation for 24 h. The medium was then removed and cells were infected with EV-A71 with 100TCID50 (50% tissue culture infective doses) in serum-free medium for 1 h at 37 °C. Then, the unbound viruses were removed and various concentrations of compounds were supplemented and incubated for another 48 h. The EC50 was determined by the Reed–Muench method. The selectivity index was calculated as the ratio of CC50/EC50 [15].

[3] = test system: EV-A71 strain H; test: CPE inhibition assay for anti-EV-A71 in Vero cells, H strain; type: cell-based, Enterovirus 71 (EV-A71); conditions: for H SI: CC50/EC50; for EC50: Enterovirus A, EVA71, Vero cells, 100TCID50, 48 h
Description: as §1
(§3) EV-A71 strain ShenZhen98 (SZ98) was isolated from the throat swab sample of an HFMD case which occurred in 1998 in China. This was kindly provided by Dr. Qi Jin, Institute of Pathogen Biology, Chinese Academy of Medical Science and Peking Union Medical School, Beijing, China. EV-A71 strains BrCr (VR-1775) and H (VR-1432) were purchased from the ATCC. The EV-A71 strain JS52 was a kind gift from Dr. Xiangzhong Ye, Beijing Wantai Biological Pharmacy Enterprise Co., Ltd. EV-A71 were all passaged in Vero cells.
as §2

[4] = test system: EV-A71 strain BrCr; test: CPE inhibition assay for anti-EV-A71 in Vero cells, BrCr strain; type: cell-based, Enterovirus 71 (EV-A71); conditions: for BrCr SI: CC50/EC50; for EC50: Enterovirus A, EVA71, Vero cells, 100TCID50, 48 h
Description: as §1, §3, §2

[5] = test system: EV-A71 strain ShenZhen98 (SZ98); test: CPE inhibition assay for anti-EV-A71 in Vero cells, Shenzhen98 strain; type: cell-based, Enterovirus 71 (EV-A71); conditions: for Shenzhen98 SI: CC50/EC50; for EC50: Enterovirus A, EVA71, Vero cells, 100TCID50, 48 h
Description: as §1, §3, §2

[6] = test system: EV-A71 strain Jiangsu52 (JS52); test: CPE inhibition assay for anti-EV-A71 in Vero cells, Jiangsu52 strain; type: cell-based, Enterovirus 71 (EV-A71); conditions: for Jiangsu52 SI: CC50/EC50; for EC50: Enterovirus A, EVA71, Vero cells, 100TCID50, 48 h
Description: as §1, §3, §2

[7] = test system: EV71; design: method as in PMID 23519203; conditions: cited from earlier work
[8] = Vero cells, 3 days of incubation, Reed–Muench, read-out: CC50

Compound | CC50 at 3 days [1, 8] | EC50 [2] | H SI [3] | EC50 [3] | BrCr SI [4] | EC50 [4] | Shenzhen98 SI [5] | EC50 [5] | Jiangsu52 SI [6] | EC50 [6] | SI towards four EV-A71 strains ([2]; CC50/EC50, range over four strains) | EC50 fold higher than pirodavir ([2]; relative to reference compound pirodavir) | fold loss in activity ([2]; against four in vitro models, relative to A3) | CC50 at 3 days [1] | SI ([7]; Figure 1) | IC50 ([7]; Figure 1, multiple virus strains, read-out: Anti-EV71 IC50) | anti-EV-A71 activity ([7]; against multiple virus strains)
Cc1ccc(N2Cc3cc(N)ccc3C2=O)cc1 [Compound 6, 5-amino-2-(p-tolyl)isoindolin-1-one] | 173 ± 34 µM | < 10 µM | 82 | 2.11 ± 0.23 µM | 91 | 1.89 ± 0.32 µM | 86 | 2 ± 0.25 µM | 91 | 1.89 ± 0.32 µM | – | – | – | – | – | – | –
O=C1c2ccccc2CN1c1ccc(Br)cc1 [Compound A4, 2-(4-bromophenyl)isoindolin-1-one] | 173 ± 34 µM | 1.23 to 1.76 µM | 98 | 1.76 ± 0.19 µM | 140 | 1.23 ± 0.28 µM | 98 | 1.76 ± 0.15 µM | 131 | 1.32 ± 0.22 µM | 98–199 | 2–4 fold | – | – | – | – | –
COc1ccc(N2Cc3ccccc3C2=O)cc1 [Compound A7, 2-(4-methoxyphenyl)isoindolin-1-one] | 318 ± 54.5 µM | < 10 µM | 34 | 9.35 ± 1.44 µM | 44 | 7.27 ± 0.86 µM | 44 | 7.27 ± 0.86 µM | 40 | 7.92 ± 0.86 µM | – | – | – | – | – | – | –
CCCNc1ccc2c(c1)C(=O)N(c1ccc(OC)cc1)C2 [Compound B1, 2-(4-methoxyphenyl)-6-(propylamino)isoindolin-1-one] | 68.4 ± 5.72 µM | < 10 µM | 13 | 5.41 ± 0.63 µM | 43 | 1.59 ± 0.35 µM | 43 | 1.59 ± 0.35 µM | 43 | 1.59 ± 0.43 µM | – | – | – | – | – | – | –
O=C1c2cc(-c3ccccc3)ccc2CN1c1ccc(Cl)cc1 [Compound D1] | 115 µM | – | / (/ represents selectivity index (SI) value of less than 10) | 66.7 µM | / (/ represents selectivity index (SI) value of less than 10) | – | / (/ represents selectivity index (SI) value of less than 10) | – | 2 | 56.5 ± 14.5 µM | – | – | – | – | – | – | –
O=C1c2cc(Nc3ccccc3)ccc2CN1c1ccc(Cl)cc1 [Compound D2] | 115 µM | – | / (/ represents selectivity index (SI) value of less than 10) | 19.6 ± 3.77 µM | / (/ represents selectivity index (SI) value of less than 10) | 19.6 ± 3.77 µM | / (/ represents selectivity index (SI) value of less than 10) | 19.8 ± 3.4 µM | / (/ represents selectivity index (SI) value of less than 10) | 15.1 ± 3.23 µM | – | – | 10 fold | – | – | – | –
CN1CCN(c2ccc3c(c2)C(=O)N(c2ccc(Cl)cc2)C3)CC1 [Compound D3, 6-(4-methylpiperazin)-2-(4-chlorophenyl)-isoindolin-1-one] | – | < 10 µM | 20 | 2.09 ± 0.54 µM | 16 | 2.71 ± 0.35 µM | 11 | 3.73 ± 0.78 µM | 32 | 1.29 ± 0.33 µM | – | – | – | 42.4 ± 5.47 µM | – | – | –
COc1ccc(C(=O)Nc2ccc(Br)cc2)cc1N [N-pheylbenzoamide hit, 3-amino-N-(4-bromophenyl)-4-methoxybenzamide] | – | – | – | – | – | – | – | – | – | – | – | – | – | – | 51-110 | 5.7 to 12 µM | moderate anti-EV-A71 activity
CCOC(=O)c1ccc(OCCC2CCN(c3ccc(C)nn3)CC2)cc1 [pirodavir, reference compound] | 33.3 µM | 0.38 to 0.76 µM | 44 | 0.76 ± 0.09 µM | 88 | 0.38 ± 0.04 µM | 67 | 0.5 ± 0.06 µM | 54 | 0.62 ± 0.1 µM | – | – | – | – | – | – | –
